Measured values as given in patent publication US20050187288A1, “Beta-lapachone and methods of treating cancer” (priority 2004, published 2005).
Where two headings read alike, the source gives them in different places.

Experiments:
[1] = test system: SK-OV-3; experiment: cells; conditions: Homo sapiens, SK-OV-3, read-out: LC50 (Replicate Results), SK-OV-3, 4 hour exposure, colonies after 14-21 days
Experimental: (§3) Control plates received the same volume of DMSO alone. After a 4 hour exposure the drug was carefully removed, and drug-free medium could be added. […] Colonies of greater than 50 cells were scored as survivors. Cells were maintained at 37° C. in 5% CO2 in complete humidity.

[2] = test system: G480 lung cancer cells; experiment: Colony formation assay, single agents and combination; format: cell-based
From the text: Control plates received the same volume of DMSO alone. […] Treated wells were presented as percentage of control. Data were presented as an average (+SEM) from three independent experiments.

[3] = Stability on incubation in human plasma; format: in vitro ADME; conditions: incubated in human plasma at 37° C. for 16 hrs; previous studies
[4] = test system: PaCa-2; experiment: cells
From the text: (§1) Control plates received the same volume of DMSO alone.
(§2) Control plates receive the same volume of DMSO alone. […] Each “Replicate Result” represents the result of a separate experiment.

[5] = test system: BxPC-3; experiment: cells; conditions: Homo sapiens
From the text: as §1, §2

[6] = in vivo; conditions: Sprague-Dawley, rat, 10 mg/kg, AUC* (estimated from toxicology experiments)
[7] = test system: ASPC-1; experiment: Colony formation assay, combination with Taxol; format: cell-based, human; conditions: β-Lapachone 4 μM, Taxol 0.2 μM, 4 hours
Experimental: Control wells were treated with equivalent volumes of DMSO. After 4 hours cells were rinsed and fresh medium is added. Cultures were observed daily for 10-20 days and then were fixed and stained. […] DNA laddering formation and annexin staining indicate that cell death is due to apoptosis.

[8] = test system: DU-145; conditions: human, 4 h
Experimental: as §3

[9] = test system: PC-3; conditions: human, 4 h
Experimental: as §3

[10] = test system: MCF-7; conditions: human, 4 h
Experimental: as §3

[11] = Pharmacokinetics after intravenous infusion in rats, HPBCD formulation; conditions: male, Sprague-Dawley, rat, plasma
[12] = test system: DU145 human prostate cancer; experiment: Human prostate cancer xenograft model; format: in vivo, mice
Experimental: Tumors were measured throughout treatment and the post-treatment observation period. […] Tumor nodules were measured during the treatment period (Days 21-43) and at the end of observation (Day 56). Dose-related inhibition of tumor growth is seen, with little tumor growth following completion of treatment. […] Tumor nodules were measured pre-treatment (“Pre-Tx”), at the end of the 30-day treatment period (“Post-Tx”) and at the conclusion of the post treatment observation period 14 days following termination of treatment (“Post-Exp't”).

[13] = test system: human PBMC; experiment: MTT cytotoxicity on PBMC; format: cell-based; conditions: 0.5, 2, 4, and 8 μM for 24 h
Experimental: Proliferating PBMC were generated by 72 h incubation with phytohemagglutinin (PHA) at 2 μg/mL.

[14] = Study 4B: cardiovascular, pulmonary study in anesthetized dogs; format: in vivo
Experimental: In Study No. 4B, adult female Beagle dogs (one male in control group) were randomized into three study groups (3 animals/group) as shown in Table 17.
For measurement of cardiovascular function, a lead II ECG was obtained with subdermal needle electrodes and an ECG signal conditioner. Heart rate (HR) was measured with a pulse rate tachometer. The right femoral artery was cannulated with a catheter connected to a pressure transducer and pressure processor for recording mean, systolic and diastolic arterial blood pressure (BP). The left femoral artery was exposed by a flank incision and a probe (2.5 mm i.d.) connected to an electromagnetic flowmeter was placed around the artery for measurement of blood flow (BF). […] For measurement of pulmonary function, a 5.0 mm endotracheal tube connected to a pneumotachograph recorded integrated flow to yield a continuous recording of respiratory rate (RR). Intrapleural pressure was obtained from an esophageal balloon placed in the lower third of the esophagus. Transpulmonary pressure, the difference between thoracic (i.e. the external end of the endotracheal tube) and pleural pressure, was measured with a differential pressure transducer. Measurements of respiratory flow and transpulmonary pressure were used to compute total lung resistance (RL) and dynamic compliance (CDYN).
All parameters were measured and recorded immediately before (0 minute) and 5, 10, 30, 60, 90 and 120 minutes after start of the infusion. The mean±SEM value and the percentage relative to pretreatment values at each observation time point after dosing were calculated, and Dunnett's test was applied for comparison between vehicle control group and test substance treated group at the relative observation time interval. Differences were considered significant at p<0.05 level.

[15] = test system: E2F1; experiment: E2F1 induction; format: cell-based, human; design: key: “+” symbol represents overexpression of E2F1 relative to a control
[16] = test system: multiple myeloma (MM) cells; experiment: MTT assay of multiple myeloma cells; format: cell-based, human; conditions: 4 μM, 24 h, all seven MM cell lines
[17] = 4 μM for 4 hours, vs carrier alone
[18] = 40 mg/kg, by the end of the infusion

Compound `CC1(C)CCC2=C(O1)c1ccccc1C(=O)C2=O` [β-lapachone, 3,4-dihydro-2,2-dimethyl-2H-naphtho [1,2-b]pyran-5,6-dione] has a CC50 [1] of 1180 nM, a cell death [2, 17] of 68% and a survival of cells [2, 17] of 32%. The “Colonies (percent control)” value ([2]; G480, β-lapachone 4 μM, 4 hours, average (SEM) of three experiments) was 32 (0.3) percent control, the “stability in human plasma” value [3] was “stable to degradation” and the CC50 ([4]; Homo sapiens, PaCa-2, read-out: LC50 (Replicate Results)) was 1680 nM. For the same compound, the CC50 ([4]; Homo sapiens, PaCa-2, read-out: LC50 (Replicate Results), PaCa-2, 4 hour exposure, colonies after 14-21 days) was 1680 nM, the CC50 ([4]; human, 4 h) was 1520 nM and the CC50 ([5]; BXPC-3, read-out: LC50 (Replicate Results)) was 1890 nM. The CC50 ([5]; BXPC-3, read-out: LC50 (Replicate Results), BxPC-3, 4 hour exposure, colonies after 14-21 days) was 1890 nM, the AUC [6] was 2640 ng·h/mL and the “Colonies, Percentage of control” value [7] was 45 (1.9) Percentage of control. The CC50 [8] was 1210 nM, the CC50 [9] was 2340 nM and the CC50 [10] was 1560 nM. For the same compound, the half-life ([11]; intravenous, elimination half-life, one-hour infusion, doses in the range 5-15 mg/kg) was 4.5 to 7 h, the AUC ([11]; iv, 5 mg/kg, 1-Hour Infusion) was 1280 ± 118 ng·h/mL and the AUC ([11]; iv, 5 mg/kg, 10-Min. Infusion) was 1200 ± 313 ng·h/mL. The Cmax ([11]; iv, 5 mg/kg, 1-Hour Infusion) was 363 ± 21 ng/mL, the Cmax ([11]; iv, 5 mg/kg, 10-Min. Infusion) was 834 ± 116 ng/mL and the half-life ([11]; iv, 5 mg/kg, T1/2, 1-Hour Infusion) was 4.3 ± 0.6 h. The half-life ([11]; iv, 5 mg/kg, T1/2, 10-Min. Infusion) was 3.6 ± 0.9 h, the Vd ([11]; iv, 5 mg/kg, Vdss, 1-Hour Infusion) was 19.6 ± 0.8 L/kg and the Vd ([11]; iv, 5 mg/kg, Vdss, 10-Min. Infusion) was 20 ± 6.3 L/kg. It also gave an AUC ([11]; iv, 10 mg/kg, 1-Hour Infusion) of 2640 ± 1020 ng·h/mL, a Cmax ([11]; iv, 10 mg/kg, 1-Hour Infusion) of 707 ± 134 ng/mL and a half-life ([11]; iv, 10 mg/kg, T1/2, 1-Hour Infusion) of 4.9 ± 1.6 h. It also gave a Vd ([11]; iv, 10 mg/kg, Vdss, 1-Hour Infusion) of 21 ± 5.3 L/kg, an AUC ([11]; iv, 15 mg/kg, 1-Hour Infusion) of 4900 ± 54 ng·h/mL and a Cmax ([11]; iv, 15 mg/kg, 1-Hour Infusion) of 896 ± 130 ng/mL. The half-life ([11]; iv, 15 mg/kg, T1/2, 1-Hour Infusion) was 7 ± 1.6 h, the Vd ([11]; iv, 15 mg/kg, Vdss, 1-Hour Infusion) was 26.4 ± 5.7 L/kg and the Vd ([11]; iv, volume of distribution, intravenous infusion) was 20 to 26 L/kg. For the same compound, the tumor growth ([12]; 100 mg/kg in Lipiodol IP q3d, 30-day treatment) was “greater suppression of tumor growth”, the tumor growth ([12]; 25 and 50 mg/kg in Lipiodol IP q3d) was “inhibited tumor growth in a dose-dependent manner” and the “cytotoxicity to fresh or proliferating PBMC growth” value [13] was “No cytotoxicity”. For the same compound, the “reduction of tidal volume” value ([14]; 20 mg/kg, at 60 minutes) was 16%, the dynamic compliance ([14]; 40 mg/kg) was “approximately 52 % of normal” and the “increase of pulmonary resistance” value ([14]; 40 mg/kg) was “approximately 50%”. The “decrease in tidal volume” value [14, 18] was 41%, the respiratory rate [14, 18] was “four-fold increase” and the “effects on cardiovascular function (BP, blood flow, heart rate, ECG incl. QTc)” value ([14]; up to and including 40 mg/kg over 1 hour) was “no significant effects on cardiovascular function”. For the same compound, the “E2F1 Induction” value ([15]; Colon HT-29) was “+”, the “E2F1 Induction” value ([15]; Colon SW480) was “+” and the “E2F1 Induction” value ([15]; Pancreas PANC1) was “+”. The “cell viability in cultures” value [16] was “significantly decreased”.
